Results reported in paper PMC6003898 (EJNMMI Research, 2018).

Tests used:
[1] = system: human U87-MG glioblastoma tumor xenografts in the flank; experiment: in vivo; conditions: mouse
Method: (§1) Tumor xenografts were obtained in mice flanks as described previously. Six-week-old female immunodeficient (nu/nu) NMRI mice, weighing 20–25 g, were obtained from Janvier Laboratories (Le Genest Saint Isle, France) and housed in ventilated cages including filter tops with an ad libitum access to food and water. Two xenograft tumors were induced in all mice through subcutaneous flank injections of 2.10^6 of human U87-MG cells. Tumor growth was assessed twice weekly, according to tumor volume (in mm^3) calculated with the formula d2 × D/2, where d and D represent the shortest and longest diameters, respectively, calculated in millimeter with a caliper (decrescent PRC, EDVC, France).
(§2) At the end of the 2nd PET recording, the animals were sacrificed by inhalation of 5% of isoflurane followed by cervical dislocation. Tumors were subsequently surgically removed for further histopathological analysis.
(§3) List-mode acquisitions of 120 min durations were initiated a few seconds prior to tracer injection, and the acquired PET data were subsequently reconstructed in 27 consecutive frames (i.e., 5 frames of 120-s duration followed by 22 frames of 5-min duration) using the ordered-subsets expectation maximization 3D algorithm (OSEM3D, 4 iterations, 16 subsets, zoom 1) together with scatter and attenuation corrections based on transmission source measurement. The final voxel size was 0.8 × 0.8 × 0.9 mm^3.
(§4) Tumor and of various organ activities were determined through SUV mean values within 3D regions of interests (ROI), which were drawn with a dedicated software (Inveon Research Workplace 4.1, Siemens®, Knoxville, USA) on the fusion images encompassing the entire 120-min recording period. Spheroid ROIs were placed inside the liver, brain, and kidney regions with the ROI limits approximating the organ limits as close as possible. Tumor and heart ROIs were obtained with isocontour ROIs and threshold limits of 50 and 80%, respectively, of the maximal voxel value.

[2] = system: human U87-MG glioblastoma tumor xenografts in the flank; conditions: mouse, iv
Method: Animals were sacrificed by cervical dislocation 60 min after injection. Various tissues (tumor, liver, heart, brain, and kidney) were dissected, weighed, and counted in a calibrated gamma counter (Wizard, PerkinElmer, France). The results were expressed as percentages of injected dose and per gram of tissue (% ID/g).

[3] = system: human U87-MG glioblastoma tumor xenografts in the brain; experiment: in vivo; conditions: rat
Excerpt: (§5) Briefly, 8-week-old athymic male nude rats (180–220 g), (Hsd: RH-Foxn1rnu; Envigo, Gannat, France), were anesthetized with a mixture of air and 1.5–2% isoflurane and were placed in a Kopf stereotactic frame (900 M Kopf Instruments, Tujunga, CA). After a scalp incision, a burr hole was drilled 0.5 mm anterior and 2.7 mm lateral to bregma and a skull anchor (Patent N° 11 55596) was affixed.

[4] = in vivo; conditions: female, NMRI nu/nu, mouse, iv, 6 MBq, total radioactivity
Method: as §1, §2, §3, §4

[5] = in vivo; conditions: male, athymic nude (Hsd: RH-Foxn1rnu), rat, total radioactivity
Excerpt: as §5

SMILES | course of tumor uptake with time [1] | route of tracer clearance [1] | tumor-to-normal brain ratio (PET imaging) [1] | mean tumor activity (SUVmean) ([1]; iv) | tumor-to-normal brain ratio (ex vivo biodistribution data, gamma counter) [2] [%ID/g] | tumor activity relative to contralateral normal brain [3] | SUV at 1 h [4] [SUV] | SUV ([5]; SUVmean_ contralateral normal brain) [SUV] | SUV ([5]; SUVmean_Tumor) [SUV]
OC[C@H]1OC(O)[C@H](F)[C@@H](O)[C@@H]1O (stereo partly shown) [^18F-FDG, ^18F-fluorodeoxyglucose] | progressive enhancement | primary renal route of tracer clearance | 1.5 ± 0.37 | 1.19 ± 0.33 | 0.61 ± 0.2 | 1.62 ± 0.15 |  |  | 
N=C(N)NCCC[C@@H]1NC(=O)[C@H](CCCCNC(=O)CCC(C(=O)O)N2CCN(CC(=O)O)CCN(CC(=O)O)CC2)NC(=O)[C@@H](Cc2ccc(O)cc2)NC(=O)[C@H](CC(=O)O)NC(=O)CNC1=O (stereo partly shown) [^68Ga-NODAGA-RGD, metal not drawn] |  | primary renal route of tracer clearance |  |  |  |  | 0.23 ± 0.04 | 0.1 | 0.5
